Results published in the supplement of paper PMC5908809.

Assays:
[1] = tested on: normal primary NK cells, pool 2 (3 donors) (IL-2 2.5 ng/mL); assay: percent inhibition of viability; higher = more inhibition; settings: 72 h
[2] = tested on: YT (IL-2 2.5 ng/mL); assay: as above; settings: 72 h
[3] = tested on: normal primary NK cells, pool 3 (3 donors) (IL-2 2.5 ng/mL); assay: as above; settings: 72 h
[4] = tested on: normal primary NK cells, pool 1 (3 donors) (IL-2 2.5 ng/mL); assay: as above; settings: 72 h
[5] = tested on: KHYG-1 (IL-2 2.5 ng/mL); assay: as above; settings: 72 h
[6] = tested on: DERL-7 (IL-2 2.5 ng/mL); assay: as above; settings: 72 h
[7] = tested on: NKL (IL-2 2.5 ng/mL); assay: as above; settings: 72 h
[8] = tested on: KAI3 (IL-2 2.5 ng/mL); assay: as above; settings: 72 h
[9] = tested on: normal primary NK cells, pool 1 (3 donors), resting (IL-2 0 ng/mL); assay: as above; settings: 72 h
[10] = tested on: NK-YS (IL-2 2.5 ng/mL); assay: as above; settings: 72 h
[11] = tested on: IMC-1 (IL-2 20 ng/mL); assay: as above; settings: 72 h
[12] = tested on: SNK-6 (IL-2 2.5 ng/mL); assay: as above; settings: 72 h
[13] = tested on: NK-92 (IL-2 2.5 ng/mL); assay: as above; settings: 72 h
[14] = tested on: normal primary NK cells, pool 2 (3 donors) (IL-2 2.5 ng/mL); assay: drug sensitivity score (DSS) (DSS units); higher = more sensitive; extreme values may be limits of the assay; settings: 72 h
[15] = tested on: YT (IL-2 2.5 ng/mL); assay: as above; settings: 72 h
[16] = tested on: normal primary NK cells, pool 3 (3 donors) (IL-2 2.5 ng/mL); assay: as above; settings: 72 h
[17] = tested on: normal primary NK cells, pool 1 (3 donors) (IL-2 2.5 ng/mL); assay: as above; settings: 72 h
[18] = tested on: KHYG-1 (IL-2 2.5 ng/mL); assay: as above; settings: 72 h
[19] = tested on: DERL-7 (IL-2 2.5 ng/mL); assay: as above; settings: 72 h
[20] = tested on: NKL (IL-2 2.5 ng/mL); assay: as above; settings: 72 h
[21] = tested on: KAI3 (IL-2 2.5 ng/mL); assay: as above; settings: 72 h
[22] = tested on: normal primary NK cells, pool 1 (3 donors), resting (IL-2 0 ng/mL); assay: as above; settings: 72 h
[23] = tested on: NK-YS (IL-2 2.5 ng/mL); assay: as above; settings: 72 h
[24] = tested on: IMC-1 (IL-2 20 ng/mL); assay: as above; settings: 72 h
[25] = tested on: SNK-6 (IL-2 2.5 ng/mL); assay: as above; settings: 72 h
[26] = tested on: NK-92 (IL-2 2.5 ng/mL); assay: as above; settings: 72 h
[27] = tested on: normal NK cells expanded with K562-aAPC; assay: percent inhibition of viability; higher = more inhibition; settings: 72 h, IL-2 2.5 ng/mL
Description: (§1)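 Drug sensitivity and resistance testing on K562-aAPC-expanded normal NK cells: 5 concentrations (10-fold steps over a 10,000-fold range), 72 h at 37 °C, viability by CellTiter-Glo normalised to DMSO and benzethonium chloride controls; DSS from the fitted curve.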

[28] = tested on: normal NK cells expanded with K562-aAPC; assay: drug sensitivity score (DSS) (DSS units); higher = more sensitive; extreme values may be limits of the assay; settings: 72 h; IL-2 2.5 ng/mL
Description: as §1

O=C(CCBr)N1CCN(C(=O)CCBr)CC1 [Pipobroman] (max concentration tested 10000 nM)
percent inhibition of viability [%]
Settings	1 nM	10 nM	100 nM	1000 nM	10000 nM
[1]	-5.41	-3.61	2.8	4.47	2.02
[2]	-7.45	-10.7	-5.22	0.28	12.2
[3]	-9.04	-2.96	2.05	2.18	15.1
[4]	1.85	-2.09	11.8	-0.73	2.49
[5]	-9.07	-13.9	-7.89	3.77	13.7
[6]	-7.31	-1.37	2	-0.47	-5.96
[7]	-27.2	-17.8	-14.3	16.6	15.7
[8]	-6.26	-3.77	3.05	9.16	13.5
[9]	2.78	-3.45	22.7	19.1	26.8
[10]	-6.73	-7.25	-3.41	11.6	20.9
[11]	-6.08	-8.46	-2.84	4.89	11.6
[12]	-14.3	-17.7	-17.4	-17.5	-6.39
[13]	-22.2	-18.9	-1.01	4.98	22.7
[27]	-6.43	-6.37	-5.59	7.79	18.1

Settings	drug sensitivity score
[14]	0
[15]	0.07
[16]	0.45
[17]	0
[18]	0.42
[19]	0
[20]	1.54
[21]	0.46
[22]	6.82
[23]	1.85
[24]	0.19
[25]	0
[26]	1.49
[28]	1.23

CNNCc1ccc(C(=O)NC(C)C)cc1 [Procarbazine] (max concentration tested 10000 nM)
percent inhibition of viability [%]
Settings	1 nM	10 nM	100 nM	1000 nM	10000 nM
[1]	-13.7	-3.7	-4.8	-10	-2.4
[2]	-8.77	-3.75	-6.96	-5.83	-8.88
[3]	-11.8	-5.14	-5.98	-4.43	-4
[4]	-3.19	-6.37	-6.53	-1.7	-5.09
[5]	-6.92	-2.1	-5.13	-6.74	-9.22
[6]	-5.96	-2.97	-1.35	-4.02	-1.33
[7]	-15.8	-21.9	-20.6	-22.9	-16.7
[8]	-11.1	-15.3	-9.69	-2.54	-7.53
[9]	-10.9	-14.4	-17.2	1.81	-7.55
[10]	-8.8	-5.02	-3.78	-7.11	-5.77
[11]	-5.39	-4.18	-3.85	-5.41	-5.74
[12]	-3.98	12.4	2.31	3.29	-21.5
[13]	-19	-5.13	-2.68	-0.23	-12.9
[27]	-2.09	-5.44	-0.68	-4.82	-4.8

Settings	drug sensitivity score
[14]	0
[15]	0
[16]	0
[17]	0
[18]	0
[19]	0
[20]	0
[21]	0
[22]	0
[23]	0
[24]	0
[25]	0
[26]	0
[28]	0

Nc1cccc2c1C(=O)N(C1CCC(=O)NC1=O)C2=O (configuration not stated) [Pomalidomide] (max concentration tested 10000 nM)
percent inhibition of viability [%]
Settings	1 nM	10 nM	100 nM	1000 nM	10000 nM
[1]	-13.3	1.17	-2.18	-2.49	-1.88
[2]	-5.53	-2.96	-0.67	-5.5	-0.71
[3]	-16	7.94	-8.83	-7.7	-5.51
[4]	-3.59	-0.54	-10.1	9.65	3.39
[5]	-4.54	-1.13	-5.7	-4.26	-0.94
[6]	-0.13	-4.4	15.2	-7.7	-4.17
[7]	-6.14	-8.75	7.72	18.5	21.2
[8]	-0.58	-8.97	-7.97	-13.6	-12.9
[9]	-1.02	-19.1	-32.7	-20.7	-23.7
[10]	-3.69	-2.34	-5.2	-2.26	-0.5
[11]	-4	-1.04	-2.22	-4.13	-2.92
[12]	-0.98	3.29	13.5	-10.9	31.7
[13]	-1.19	-10.2	-3.35	-12.4	-16.6
[27]	-10.8	-9.91	-9.37	-11.8	-8.13

Settings	drug sensitivity score
[14]	0
[15]	0
[16]	0
[17]	0
[18]	0
[19]	0
[20]	3.93
[21]	0
[22]	0
[23]	0
[24]	0
[25]	0.99
[26]	0
[28]	0
